Measured values reported in US7473688B2, “Indolobenzazepine HCV NS5B inhibitors” (Bristol-Myers Squibb Company, priority 2005, dated 2009).
Read-outs that look alike come from different tables or passages of the source.

Experiments:
HCV replicon = HCV replicon FRET assay; type: cell-based; settings: Hepatitis C virus
Description: FRET Assay Preparation. To perform the HCV FRET screening assay, 96-well cell culture plates were used. The FRET peptide (Anaspec, Inc.) (Taliani et al., Anal. Biochem. 1996, 240, 60-67) contains a fluorescence donor, EDANS, near one end of the peptide and an acceptor, DABCYL, near the other end. The fluorescence of the peptide is quenched by […] resonance energy transfer (RET) between the donor and the acceptor, but as the NS3 protease cleaves the peptide the products are released from RET quenching and the fluorescence of the donor becomes apparent. The assay reagent was made as follows: 5× cell Luciferase cell culture lysis reagent from Promega (#E153A) diluted to 1× with dH2O, NaCl added to 150 mM final, the FRET peptide diluted to 20 uM final from a 2 mM stock.
To prepare plates, HCV replicon cells, with or without a Renilla luciferase reporter gene, were trypsinized and placed into each well of a 96-well plate with titrated test compounds added in columns 3 through 12; columns 1 and 2 contained a control compound (HCV protease inhibitor), and the bottom row contained cells without compound. The plates were then placed in a CO2 incubator at 37° C.
Assays. Subsequent to addition of the test compounds described above (FRET Assay Preparation), at various times the plate was removed and Alamar blue solution (Trek Diagnostics, #00-100) was added per well as a measure of cellular toxicity. After reading in a Cytoflour 4000 instrument (PE Biosystems), plates were rinsed with PBS and then used for FRET assay by the addition of 30 ul of the FRET peptide assay reagent described above (FRET Assay Preparation) per well. The plate was then placed into the Cytoflour 4000 instrument which had been set to 340 excite/490 emission, automatic mode for 20 cycles and the plate read in a kinetic mode. Typically, the signal to noise using an endpoint analysis after the reads was at least three-fold. Alternatively, after Alamar blue reading, plates were rinsed with PBS, 50 ul of DMEM (high glucose) without phenol red was added and plates were then used for luciferase assay using the Promega Dual-Glo Luciferase Assay System.
Compound analysis was determined by quantification of the relative HCV replicon inhibition and the relative cytotoxicity values. To calculate cytoxicity values, the average Alamar Blue fluorescence signals from the control wells were set as 100% non-toxic. The individual signals in each of the compound test wells were then divided by the average control signal and multiplied by 100% to determine […]. To calculate the HCV replicon inhibition values, an average background value was obtained from the two wells containing the highest amount of HCV protease inhibitor at the end of the assay period. These numbers were similar to those obtained from naïve Huh-7 cells.
The background numbers were then subtracted from the average signal obtained from the control wells and this number was used as 100% activity. The individual signals in each of the compound test wells were then divided by the averaged control values after background subtraction and multiplied by 100% to determine percent activity. EC50 values for a protease inhibitor titration were calculated as the concentration which caused a 50% reduction in FRET or luciferase activity. The two numbers generated for the compound plate, percent cytoxicity and percent activity were used to determine compounds of interest for further analysis.

HCV NS5B = target: T1, HCV NS5B (Hepatitis C virus genotype 1b, UniProt Q9WMX2); experiment: HCV NS5B RdRp enzyme assay (preincubation protocol); type: biochemical; settings: Table 1, read-out: IC50*
T1 construct: The protein was expressed with an 18 amino acid C-terminal truncation to enhance the solubility; made in house; host or cells: E. coli BL21 (DE3), pET21a
T1 sequence (Q9WMX2 2420-2992): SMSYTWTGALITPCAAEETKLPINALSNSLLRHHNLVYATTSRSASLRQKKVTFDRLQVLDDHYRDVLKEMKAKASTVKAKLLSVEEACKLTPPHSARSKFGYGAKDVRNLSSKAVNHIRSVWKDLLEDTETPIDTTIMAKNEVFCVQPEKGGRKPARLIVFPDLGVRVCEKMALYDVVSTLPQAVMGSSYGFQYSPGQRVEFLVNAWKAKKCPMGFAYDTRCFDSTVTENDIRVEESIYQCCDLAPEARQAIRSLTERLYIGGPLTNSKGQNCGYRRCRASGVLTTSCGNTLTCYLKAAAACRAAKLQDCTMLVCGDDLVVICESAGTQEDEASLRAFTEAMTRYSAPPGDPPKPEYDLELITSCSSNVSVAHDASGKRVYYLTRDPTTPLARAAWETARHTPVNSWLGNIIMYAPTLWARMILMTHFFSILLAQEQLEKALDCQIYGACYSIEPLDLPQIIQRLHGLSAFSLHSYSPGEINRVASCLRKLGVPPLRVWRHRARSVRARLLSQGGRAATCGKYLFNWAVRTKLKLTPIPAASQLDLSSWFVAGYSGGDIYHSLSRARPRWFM
Procedure, shortened: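 C-terminally truncated (Δ18) genotype 1b NS5B from E. coli, 14 nM, added to compound, then polyA template (0.2 nM), 3H-UTP (0.29 μM) and oligo-dT12 primer precaptured on streptavidin SPA beads. 4 h at 30 °C, pH 7.5, 2% DMSO; SPA readout; IC50 from seven concentrations by logistic fit.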

[1] = Table 1, FRET assay, read-out: EC50*

Row | Compound | EC50 (HCV replicon; [1]) [nM] | IC50 (HCV NS5B) [nM] | EC50 (HCV replicon) [nM]
1 | CN(C)S(=O)(=O)NC(=O)c1ccc2c(C3CCCCC3)c3n(c2c1)CC(C(=O)N1CCN(C(=O)c2ccccc2)CC1)=Cc1ccccc1-3 | 70 to 1000 | 10 to 1000 | 
2 | C[C@@H]1CN(C(=O)c2ccccc2)CCN1C(=O)C1=Cc2ccccc2-c2c(C3CCCCC3)c3ccc(C(=O)NS(=O)(=O)N(C)C)cc3n2C1 | 70 to 1000 | 10 to 1000 | 
3 | CN(C)S(=O)(=O)NC(=O)c1ccc2c(C3CCCCC3)c3n(c2c1)CC(C(=O)N1CCN2C(=O)c4ccccc4C2C1)=Cc1ccccc1-3 (stereo not shown) | 70 to 1000 | 10 to 1000 | 
4 | O=C(O)c1ccc2c(C3CCCCC3)c3n(c2c1)CC(C(=O)N1CCN(c2ncccn2)CC1)=Cc1ccccc1-3 | 70 to 1000 | 10 to 1000 | 
5 | CN(C)S(=O)(=O)NC(=O)c1ccc2c(C3CCCCC3)c3n(c2c1)CC(C(=O)N1CCN(c2ncccn2)CC1)=Cc1ccccc1-3 | 70 to 1000 | 10 to 1000 | 
6 | Cn1ncc(CNC(=O)c2ccc3c(C4CCCCC4)c4n(c3c2)CC(C(=O)N2CCOCC2)=Cc2ccccc2-4)n1 | 1000 to 10000 | 10 to 1000 | 
7 | O=C(O)c1ccc2c(C3CCCCC3)c3n(c2c1)CC(C(=O)Nn1cnnc1)Cc1ccccc1-3 (stereo not shown) | > 10000 | 10 to 1000 | 
8 | COC(=O)c1ccc2c(C3CCCCC3)c3n(c2c1)CC(C(=O)N(C)CC1CCCN(C)C1)Cc1ccccc1-3 (stereo not shown) | 70 to 1000 | 10 to 1000 | 
9 | CN1CCCC(CN(C)C(=O)C2Cc3ccccc3-c3c(C4CCCCC4)c4ccc(C(=O)O)cc4n3C2)C1 (stereo not shown) | 70 to 1000 | 10 to 1000 | 
10 | CN1CCCC(CN(C)C(=O)C2Cc3ccccc3-c3c(C4CCCCC4)c4ccc(C(=O)NS(=O)(=O)N(C)C)cc4n3C2)C1 (stereo not shown) | < 20 | 10 to 1000 | 
11 | COC(=O)c1ccc2c(C3CCCCC3)c3n(c2c1)CC(C(=O)N(C)CC1CCCN(C)C1)=Cc1ccccc1-3 (stereo not shown) | 1000 to 10000 | 10 to 1000 | 
12 | CN1CCCC(CN(C)C(=O)C2=Cc3ccccc3-c3c(C4CCCCC4)c4ccc(C(=O)N(C)CC5CCCN(C)C5)cc4n3C2)C1 (stereo not shown) | 1000 to 10000 | 10 to 1000 | 
13 | CN1CCCC(CN(C)C(=O)C2=Cc3ccccc3-c3c(C4CCCCC4)c4ccc(C(=O)O)cc4n3C2)C1 (stereo not shown) | 70 to 1000 | 10 to 1000 | 
14 | CN1CCCC(CN(C)C(=O)C2=Cc3ccccc3-c3c(C4CCCCC4)c4ccc(C(=O)NS(=O)(=O)N(C)C)cc4n3C2)C1 (stereo not shown) | 70 to 1000 | 10 to 1000 | 
15 | O=C(Nc1nccs1)C1=Cc2ccccc2-c2c(C3CCCCC3)c3ccc(C(=O)O)cc3n2C1 | 1000 to 10000 | 10 to 1000 | 
16 | O=C(O)c1ccc2c(C3CCCCC3)c3n(c2c1)CC(C(=O)N1C2CCC1CC2)=Cc1ccccc1-3 |  | 10 to 1000 | 70 to 1000
17 | CN(C)S(=O)(=O)NC(=O)c1ccc2c(C3CCCCC3)c3n(c2c1)CC(C(=O)N1C2CCC1CC2)=Cc1ccccc1-3 |  | 10 to 1000 | 70 to 1000
18 | COC(=O)c1ccc2c(C3CCCCC3)c3n(c2c1)CC(C(=O)N1CC2(CCN(C)CC2)C1)=Cc1ccccc1-3 | 1000 to 10000 | > 1000 | 
19 | CN1CCC2(CC1)CN(C(=O)C1=Cc3ccccc3-c3c(C4CCCCC4)c4ccc(C(=O)O)cc4n3C1)C2 | 70 to 1000 | 10 to 1000 | 
20 | CN(C)S(=O)(=O)NC(=O)c1ccc2c(C3CCCCC3)c3n(c2c1)CC(C(=O)Nc1nccs1)=Cc1ccccc1-3 | 70 to 1000 | 10 to 1000 | 
21 | CN(C)S(=O)(=O)NC(=O)c1ccc2c(C3CCCCC3)c3n(c2c1)CC(C(=O)N1C[C@@H]2C[C@H]1CN2C(=O)OC(C)(C)C)=Cc1ccccc1-3 | 70 to 1000 | 10 to 1000 | 
22 | CN(C)S(=O)(=O)NC(=O)c1ccc2c(C3CCCCC3)c3n(c2c1)CC(C(=O)N1C[C@@H]2C[C@H]1CO2)=Cc1ccccc1-3 | 70 to 1000 | 10 to 1000 | 
23 | CCN(C(C)=O)C1CCN(C(=O)C2=Cc3ccccc3-c3c(C4CCCCC4)c4ccc(C(=O)NS(=O)(=O)N(C)C)cc4n3C2)C1 (stereo not shown) | 70 to 1000 | 10 to 1000 | 
24 | CN(CCC1OCCO1)C(=O)C1=Cc2ccccc2-c2c(C3CCCCC3)c3ccc(C(=O)NS(=O)(=O)N(C)C)cc3n2C1 | 70 to 1000 | 10 to 1000 | 

Row | Compound | EC50 (HCV replicon; [1]) [nM] | IC50 (HCV NS5B) [nM] | EC50 (HCV replicon) [nM]
25 | COC[C@H]1CCCN1C(=O)C1=Cc2ccccc2-c2c(C3CCCCC3)c3ccc(C(=O)NS(=O)(=O)N(C)C)cc3n2C1 | 70 to 1000 | 10 to 1000 | 
26 | COCCN(CCOC)C(=O)C1=Cc2ccccc2-c2c(C3CCCCC3)c3ccc(C(=O)NS(=O)(=O)N(C)C)cc3n2C1 | 70 to 1000 | 10 to 1000 | 
27 | COCCN(C)C(=O)C1=Cc2ccccc2-c2c(C3CCCCC3)c3ccc(C(=O)NS(=O)(=O)N(C)C)cc3n2C1 | 70 to 1000 | 10 to 1000 | 
28 | CN(C)S(=O)(=O)NC(=O)c1ccc2c(C3CCCCC3)c3n(c2c1)CC(C(=O)N1CCC(CNC(=O)c2ccccc2)C1)=Cc1ccccc1-3 (stereo not shown) | 70 to 1000 | 10 to 1000 | 
29 | CN(C)S(=O)(=O)NC(=O)c1ccc2c(C3CCCCC3)c3n(c2c1)CC(C(=O)NC1CCOCC1)=Cc1ccccc1-3 | 70 to 1000 | 10 to 1000 | 
30 | COC(=O)c1ccc2c(C3CCCCC3)c3n(c2c1)CC(NC(=O)N1CCOCC1)Cc1ccccc1-3 (stereo not shown) | > 120 | > 1000 | 
31 | O=C(O)c1ccc2c(C3CCCCC3)c3n(c2c1)CC(NC(=O)N1CCOCC1)Cc1ccccc1-3 (stereo not shown) | 70 to 1000 | 10 to 1000 | 
32 | COC(=O)c1ccc2c(C3CCCCC3)c3n(c2c1)CC(C(=O)N1CCC(C(N)=O)C1)=Cc1ccccc1-3 (stereo not shown) | 1000 to 10000 | > 1000 | 
33 | NC(=O)C1CCN(C(=O)C2=Cc3ccccc3-c3c(C4CCCCC4)c4ccc(C(=O)O)cc4n3C2)C1 (stereo not shown) | 1000 to 10000 | 10 to 1000 | 
34 | CN(C)S(=O)(=O)NC(=O)c1ccc2c(C3CCCCC3)c3n(c2c1)CC(C(=O)N1CCC(N2CCOCC2)CC1)=Cc1cc(O)ccc1-3 | 70 to 1000 | 10 to 1000 | 
35 | COC(=O)c1ccc2c(C3CCCCC3)c3n(c2c1)CC(NC(=O)N1C[C@@H](C)O[C@@H](C)C1)Cc1ccccc1-3 (stereo partly shown) | > 120 | > 1000 | 
36 | CC(=O)N(C)C1CCN(C(=O)C2=Cc3ccccc3-c3c(C4CCCCC4)c4ccc(C(=O)NS(=O)(=O)N(C)C)cc4n3C2)C1 (stereo not shown) | 70 to 1000 | 10 to 1000 | 
37 | CN(C)C(=O)[C@@H]1CCCN1C(=O)C1=Cc2ccccc2-c2c(C3CCCCC3)c3ccc(C(=O)NS(=O)(=O)N(C)C)cc3n2C1 | 70 to 1000 | 10 to 1000 | 
38 | CN(C)S(=O)(=O)NC(=O)c1ccc2c(C3CCCCC3)c3n(c2c1)CC(C(=O)N1CCC(Oc2ncccn2)CC1)=Cc1ccccc1-3 | 70 to 1000 | 10 to 1000 | 
39 | CN(C)S(=O)(=O)NC(=O)c1ccc2c(C3CCCCC3)c3n(c2c1)CC(C(=O)N1CCOC(c2ccccc2)C1)=Cc1ccccc1-3 (stereo not shown) | 1000 to 10000 | 10 to 1000 | 
40 | CN(C(=O)C1=Cc2ccccc2-c2c(C3CCCCC3)c3ccc(C(=O)NS(=O)(=O)N(C)C)cc3n2C1)C1CCS(=O)(=O)C1 (stereo not shown) | 70 to 1000 | 10 to 1000 | 
41 | CN(C)S(=O)(=O)NC(=O)c1ccc2c(C3CCCCC3)c3n(c2c1)CC(C(=O)N1CCS(=O)(=O)CC1)=Cc1ccccc1-3 | 70 to 1000 | 10 to 1000 | 
42 | COC(=O)c1ccc2c(C3CCCCC3)c3n(c2c1)CC(C(=O)N(C)NC(C)=O)=Cc1ccccc1-3 | 1000 to 10000 | > 1000 | 
43 | CC(=O)NN(C)C(=O)C1=Cc2ccccc2-c2c(C3CCCCC3)c3ccc(C(=O)NS(=O)(=O)N(C)C)cc3n2C1 | 70 to 1000 | 10 to 1000 | 
44 | O=C(O)c1ccc2c(C3CCCCC3)c3n(c2c1)C[C@@H](NC(=O)N1CCOCC1)Cc1ccccc1-3 | 70 to 1000 | 10 to 1000 | 
45 | O=C(O)c1ccc2c(C3CCCCC3)c3n(c2c1)C[C@H](NC(=O)N1CCOCC1)Cc1ccccc1-3 | 70 to 1000 | 10 to 1000 | 
46 | COc1ccc2c(c1)C=C(C(=O)N(C)CC(=O)N(C)C)Cn1c-2c(C2CCCCC2)c2ccc(C(=O)O)cc21 | 70 to 1000 | 10 to 1000 | 
47 | C[C@@H]1CN(C(=O)NC2Cc3ccccc3-c3c(C4CCCCC4)c4ccc(C(=O)NS(=O)(=O)N(C)C)cc4n3C2)C[C@H](C)O1 (stereo partly shown) | 70 to 1000 | 10 to 1000 | 
